Patent EP4122499A1, “FIBROBLAST ACTIVATION PROTEIN INHIBITORS AND USE THEREOF” (3B Pharmaceuticals GmbH, priority 2021, dated 2023)

What was measured:
[1] = Plasma stability assay, mouse plasma; format: in vitro ADME; conditions: 37°C
Experimental: (§1) In order to determine the stability of selected compounds of the invention in human and mouse plasma, a plasma stability assay was carried out. Such plasma stability assay measures degradation of compounds of the present invention in blood plasma. This is an important characteristic of a compound as compounds, with the exception of pro-drugs, which rapidly degrade in plasma, generally show poor in vivo efficacy. […] The stability is sufficient for the diagnostic, therapeutic and theragnostic use of these compounds according to the present invention.
(§2) The plasma stability samples were prepared by spiking 50 µl plasma aliquots (all sodium citrate 3.8%) with 1 µl of a 0.5 mM compound stock solution in DMSO. After vortexing, the samples were incubated in a Thermomixer at 37°C for 4 or 6 hours. After incubation the samples were stored on ice until further treatment. All samples were prepared in duplicates.
A suitable internal standard was added to each sample (1 µl of a 0.5 mM stock solution in DMSO). Protein precipitation was performed using two different methods depending on the compound conditions as indicated in Table 8. • A) 250 µl of acetonitrile containing 1% trifluoroacetic acid was added. […] After incubation at room temperature for 30 min the precipitate was separated by centrifugation. To 100 µl of the supernatant 10 µl of 1% formic acid was added followed by further incubation at 60°C for 10 min to complete the formation of the zinc chelate, if the compound contains a free DOTA moiety.
The determination of the analyte in the clean sample solutions was performed on an Agilent 1290 UHPLC system coupled to an Agilent 6530 Q-TOF mass spectrometer. The chromatographic separation was carried out on a Phenomenex BioZen XB-C18 HPLC column (50 x 2 mm, 1.7 µm particle size) with gradient elution using a mixture of 0.1% formic acid in water as eluent A and acetonitrile as eluent B (2% B to 41% in 7 min, 800 µl/min, 40°C). Mass spectrometric detection was performed in positive ion ESI mode by scanning the mass range from m/z 50 to 3000 with a sampling rate of 2 / sec.
From the mass spectrometric raw data the ion currents for the double or triple charged monoisotopic signal was extracted for both, the compound and the internal standard.
(§3) Quantitation was performed by external matrix calibration with internal standard using the integrated analyte signals.
The result is stated as "% intact compound remaining after 4 h or 6 h" and means that from the amount of material at the start of the experiment the stated percentage is detected as unchanged material at the end of the experiment by LC-MS quantification. Since all compounds are more than 50% intact after at least 4 h they are considered as stable enough for diagnostic and therapeutic applications. Table 8: Results of the plasma stability assay

[2] = biological target: T1, HEK-FAP cells (Homo sapiens, UniProt Q12884); experiment: LigandTracer assay with 111In-labeled compounds; format: binding; conditions: 111In-labeled compound; for kon: association rate, read-out: ka
T1 construct: expressed in transfected cells; host or cells: HEK293
T1 sequence (Q12884 1-760): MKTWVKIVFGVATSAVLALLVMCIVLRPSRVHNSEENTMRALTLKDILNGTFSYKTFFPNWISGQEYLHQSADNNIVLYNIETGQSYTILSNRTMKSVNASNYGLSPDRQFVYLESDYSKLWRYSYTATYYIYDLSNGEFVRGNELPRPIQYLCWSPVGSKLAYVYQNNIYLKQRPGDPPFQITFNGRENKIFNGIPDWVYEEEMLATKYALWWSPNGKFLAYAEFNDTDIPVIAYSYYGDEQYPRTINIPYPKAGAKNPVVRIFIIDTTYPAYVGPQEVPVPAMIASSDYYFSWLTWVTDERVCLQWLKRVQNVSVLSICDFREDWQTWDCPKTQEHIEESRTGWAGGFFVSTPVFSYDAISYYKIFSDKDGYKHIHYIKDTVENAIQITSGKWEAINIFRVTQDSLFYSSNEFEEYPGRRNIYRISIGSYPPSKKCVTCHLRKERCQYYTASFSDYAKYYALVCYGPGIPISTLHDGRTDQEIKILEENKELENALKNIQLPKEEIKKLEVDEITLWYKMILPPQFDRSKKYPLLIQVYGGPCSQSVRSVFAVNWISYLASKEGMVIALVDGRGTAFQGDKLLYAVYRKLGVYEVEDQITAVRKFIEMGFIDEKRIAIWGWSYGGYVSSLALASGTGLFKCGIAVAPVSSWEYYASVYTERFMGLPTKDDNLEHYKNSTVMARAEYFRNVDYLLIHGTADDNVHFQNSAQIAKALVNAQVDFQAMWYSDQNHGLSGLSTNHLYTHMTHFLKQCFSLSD
Experimental: HEK293 cells (human embryonic kidney cells) were engineered to express the human FAP. […] Cell concentrations were adjusted to 3 x 10^5 mL^-1, and 3.000 µL of the suspension was dispensed into a poly-lysine-coated, clear cell dish (10cm). Approximately 24 hours after re-seeding, the medium was replaced by assay medium (Ham's medium with 20 mM HEPES) containing 1 % FCS. The dish was placed in the LigandTracer® device and a baseline measurement was obtained using the LigandTracer® Control software (version 2.4). […] To determine the dissociation rate (kd) the cells were washed and subsequently incubated with fresh assay medium for several hours. […] Table 14 Results of the LigandTracer® assay

[3] = Plasma stability assay, human plasma; format: in vitro ADME; conditions: 37°C, 6 h
Experimental: as §1, §2
A suitable internal standard was added to each sample (1 µl of a 0.5 mM stock solution in DMSO). […]
as §3
The result is stated as "% intact compound remaining after 4 h or 6 h" and means that from the amount of material at the start of the experiment the stated percentage is detected as unchanged material at the end of the experiment by LC-MS quantification. […]

HL [2]	pKD [2]	SMILES	% intact compound remaining after incubation ([1]; 4 h)	other results
3946 ± 1189 min	10.3 ± 0.1	O=C(O)CN1CCN(CC(=O)O)CCN(CC(=O)N2CCN(CCNC(=O)c3cccc(-c4ccc5c(C(=O)NCC(=O)N6CCC[C@H]6C(=O)c6nc7ccccc7o6)ccnc5c4)c3)CC2)CCN(CC(=O)O)CC1 [Compound 3BP-4694]		% intact compound remaining after incubation ([1]; 6 h): 90% (6 h); kon [2]: 57000 M⁻¹ s⁻¹
		O=C(NCC(=O)N1CCC[C@H]1C(=O)c1ncco1)c1ccnc2ccccc12 [Compound 3BP-3208]	92% (4 h)	
1477 ± 2013 min	9.8 ± 0.7	O=C(O)CN1CCN(CC(=O)O)CCN(CC(=O)N2CCN(CCNC(=O)c3ccc(-c4ccc5nccc(C(=O)NCC(=O)N6CCC[C@H]6C(=O)c6nc7ccccc7o6)c5c4)cc3)CC2)CCN(CC(=O)O)CC1 [Compound 3BP-4663]		% intact compound remaining after incubation [3]: 89% (6 h); % intact compound remaining after incubation ([1]; 6 h): 92% (6 h); kon [2]: 150000 M⁻¹ s⁻¹
		CS(=O)(=O)c1ccc(-c2ccc3c(C(=O)NCC(=O)N4CCC[C@H]4C#N)ccnc3c2)cc1 [Compound 3BP-3128]	> 95% (4 h)	
		O=C(NCC(=O)N1CCC[C@H]1C(=O)c1nc2ccccc2o1)c1ccnc2c1=CCCC=2 [Compound 3BP-3205]	> 95% (4 h)	
		CS(=O)(=O)c1cccc(-c2ccc3nccc(C(=O)NCC(=O)N4CC(F)(F)C[C@H]4C#N)c3c2)c1 [Compound 3BP-3126]	78% (4 h)	
1030 ± 1439 min	9.3 ± 0.7	O=C(O)CN1CCN(CC(=O)O)CCN(CC(=O)N2CCN(CCNC(=O)c3cccc(-c4ccc5nccc(C(=O)NCC(=O)N6CCC[C@H]6C(=O)c6nc7ccccc7o6)c5c4)c3)CC2)CCN(CC(=O)O)CC1 [Compound 3BP-4664]		kon [2]: 160000 M⁻¹ s⁻¹
		CS(=O)(=O)c1cccc(-c2ccc3c(C(=O)NCC(=O)N4CC(F)(F)C[C@H]4C#N)ccnc3c2)c1 [Compound 3BP-3127]	> 95% (4 h)	
27 ± 12 min	8.3 ± 0.2	O=C(O)CN1CCN(CC(=O)O)CCN(CC(=O)N2CCN(CCNC(=O)c3ccc(-c4ccc5nccc(C(=O)NCC(=O)N6CCC[C@H]6C(=O)c6nc7ccccc7o6)c5c4)cn3)CC2)CCN(CC(=O)O)CC1 [Compound 3BP-4811]		
276 ± 142 min		N#C[C@@H]1CC(F)(F)CN1C(=O)CNC(=O)c1ccnc2ccc(OCCCN3CCN(C(=O)CN4CCN(CC(=O)O)CCN(CC(=O)O)CCN(CC(=O)O)CC4)CC3)cc12 [Compound 3BP-2929, reference compound]		
38 ± 4 min	8.5 ± 0.1	O=C(O)CN1CCN(CC(=O)O)CCN(CC(=O)N2CCN(CCNC(=O)c3ccc(-c4ccc5nccc(C(=O)NCC(=O)N6C[C@@H](F)C[C@H]6C(=O)c6nc7ccccc7o6)c5c4)cc3)CC2)CCN(CC(=O)O)CC1 [Compound 3BP-4810]		

SMILES	HL [2]	pKD [2]	% intact compound remaining after incubation ([1]; 4 h)	other results
O=C(O)CN1CCN(CC(=O)O)CCN(CC(=O)N2CCN(CCCOc3ccc4nccc(C(=O)NCC(=O)N5C[C@@H](F)C[C@H]5C(=O)c5nc6ccccc6o5)c4c3)CC2)CCN(CC(=O)O)CC1 [Compound 3BP-4809]	18 ± 1 min	8.2 ± 0.1		
O=C(O)CN1CCN(CC(=O)O)CCN(CC(=O)NCCCS(=O)(=O)c2ccc(-c3ccc4nccc(C(=O)NCC(=O)N5CCC[C@H]5C(=O)c5nc6ccccc6o5)c4c3)cc2)CCN(CC(=O)O)CC1 [Compound 3BP-3581, (S)-2,2',2"-(10-(2-(3-(4-(4-(2-(2-(benzo[d]oxazole-2-carbonyl)pyrrolidin-1-yl)-2-oxoethylcarbamoyl)quinolin-6-yl)phenylsulfonyl)propylamino)-2-oxoethyl)-1,4,7,10-tetraazacyclododecane-1,4,7-triyl)triacetic acid]	345 ± 218 min			
